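Five compound concentrations were applied to cells in 96-well plates for 48 hours; endpoints were derived by simple linear interpolation of the resulting dose-response curve. Here, GI50 denotes the concentration required for 50% inhibition of growth. Definition used: TGI = concentration required for complete inhibition of growth.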

Drawing on PubChem BioAssay (NCI), this text covers GI50 and TGI for nine compounds.

Some test systems named below: OVCAR-4 ovarian; NCI-H460 lung; CAKI-1 renal; HL-60(TB) leukemia; NCI-H23 lung; SNB-75 CNS; T-47D breast; HOP-92 NSCLC; NCI-H226 lung; SR leukemia.
Holding throughout (test): NCI anticancer screen, dose series, 48 h

On to `COc1cc(N2CCC(N)CC2)ccc1Nc1ncc(Cl)c(-c2c[nH]c3ccccc23)n1`, for which the GI50 in the assay on OVCAR-4 ovarian is 0.235 µM; in the assay on NCI-H460 lung it was 0.235 µM; in the assay with CAKI-1 renal, 0.335 µM; with HL-60(TB) leukemia it was 0.0412 µM; in the assay with NCI-H23 lung, 0.925 µM; in the assay with SNB-75 CNS, 0.417 µM. Moreover, the GI50 with T-47D breast is 1.78 µM; with HOP-92 NSCLC, 0.035 µM; with NCI-H226 lung, 0.334 µM. Besides, the TGI with OVCAR-4 ovarian was determined as 3.66 µM; in the assay on NCI-H460 lung, 1.66 µM; with CAKI-1 renal it was 2.1 µM; with HL-60(TB) leukemia, 2.75 µM; in the assay on NCI-H23 lung, 3.06 µM; in the assay with SNB-75 CNS, 1.97 µM. In addition, the TGI stood at 4.72 µM in the assay on T-47D breast, 0.345 µM in the assay with HOP-92 NSCLC and 3.59 µM in the assay with NCI-H226 lung.

`COc1ccc(/C=C/C(=O)/C=C(O)/C=C/c2ccc(OC)c(OC)c2)cc1OC`: the GI50 was 27.6 µM in the assay with OVCAR-4 ovarian; 4.6 µM in the assay with NCI-H460 lung; 3.55 µM with CAKI-1 renal; 1.68 µM in the assay with SR leukemia; 3.94 µM in the assay with NCI-H23 lung; 16.5 µM in the assay with SNB-75 CNS. Further, the GI50 was 76.9 µM in the assay on T-47D breast, 14.1 µM with HOP-92 NSCLC and 3.59 µM in the assay with NCI-H226 lung. Besides, the TGI was more than 100 µM in the assay on OVCAR-4 ovarian; more than 100 µM in the assay with NCI-H460 lung; 23 µM in the assay on CAKI-1 renal; more than 100 µM with SR leukemia; 21.8 µM with NCI-H23 lung; 69 µM with SNB-75 CNS. The TGI was more than 100 µM in the assay on T-47D breast, 98.4 µM in the assay on HOP-92 NSCLC and more than 100 µM with NCI-H226 lung.

`Fc1ccc(Nc2nc3nonc3nc2Nc2ccc(I)cc2)cc1`: the GI50 in the assay with OVCAR-4 ovarian is 0.283 µM; in the assay with NCI-H460 lung it was 0.312 µM; in the assay on CAKI-1 renal, 0.251 µM; in the assay on SR leukemia, 0.252 µM; in the assay on NCI-H23 lung it was 0.265 µM; with SNB-75 CNS, 0.263 µM. Moreover, the results for the GI50 in the assay on T-47D breast, in the assay on HOP-92 NSCLC and in the assay on NCI-H226 lung were 0.228 µM, 0.04 µM and 0.319 µM, respectively. Further, the TGI in the assay on OVCAR-4 ovarian amounted to 64.5 µM; in the assay with NCI-H460 lung, 12.4 µM; in the assay on CAKI-1 renal, 14.7 µM; in the assay with SR leukemia, 1.91 µM; with NCI-H23 lung, 1.31 µM; with SNB-75 CNS, 11.7 µM. Also, the TGI with T-47D breast was 0.892 µM; with HOP-92 NSCLC it was 0.326 µM; with NCI-H226 lung, 1.94 µM.

As for `CC(=O)N[C@@H](Cc1ccc(OP(=O)(O)O)cc1)C(=O)N[C@H]1CCC(=O)N2CCC[C@@H](C(=O)NC3CCc4ccccc43)N2C1=O` (stereo partly specified), the GI50 in the assay on OVCAR-4 ovarian, with NCI-H460 lung, in the assay on CAKI-1 renal, in the assay on HL-60(TB) leukemia, in the assay on NCI-H23 lung and with SNB-75 CNS was more than 25 µM in each case. In addition, the GI50 in the assay on T-47D breast, with HOP-92 NSCLC and with NCI-H226 lung was more than 25 µM in each case. The TGI in the assay with OVCAR-4 ovarian, in the assay on NCI-H460 lung, in the assay with CAKI-1 renal, with HL-60(TB) leukemia, with NCI-H23 lung and with SNB-75 CNS was more than 25 µM throughout. Moreover, the TGI in the assay with T-47D breast, in the assay on HOP-92 NSCLC and in the assay with NCI-H226 lung was more than 25 µM each time.

Regarding `O=C1OCC2=C1C(c1cccc(Cl)c1)c1cc3c(cc1N2CCO)CCC3` (stereo unspecified), the GI50 in the assay on OVCAR-4 ovarian was 0.0609 µM; in the assay on NCI-H460 lung, 0.038 µM; with CAKI-1 renal, 0.0493 µM; in the assay with HL-60(TB) leukemia it was 0.0318 µM; with SR leukemia, 0.0609 µM; in the assay with NCI-H23 lung, 0.0481 µM. Also, the GI50 in the assay with SNB-75 CNS was 0.027 µM; in the assay on T-47D breast, 0.0414 µM; in the assay on NCI-H226 lung it was 0.0527 µM. Also, the TGI was 19.5 µM in the assay with OVCAR-4 ovarian; 4.12 µM in the assay with NCI-H460 lung; 14.7 µM in the assay with CAKI-1 renal; 0.353 µM in the assay on HL-60(TB) leukemia; 21 µM in the assay on SR leukemia; 14.3 µM with NCI-H23 lung. In addition, the TGI came to 17.7 µM in the assay on SNB-75 CNS, 23.2 µM in the assay on T-47D breast and 0.912 µM with NCI-H226 lung.

For `COC1C(=O)CCC2(CO2)C1(O)C1(C)OC1CC=C(C)C` (stereo unspecified), the TGI in the assay with OVCAR-4 ovarian, with NCI-H460 lung, in the assay on CAKI-1 renal, with SR leukemia, in the assay with NCI-H23 lung and in the assay on SNB-75 CNS was more than 100 µM each time. Besides, the TGI in the assay on T-47D breast and in the assay on HOP-92 NSCLC was more than 100 µM throughout.

On to `COc1cc2c(cc1-c1coc3cc(O)ccc3c1=O)OCO2`, for which the TGI in the assay with OVCAR-4 ovarian is 44.3 µM; in the assay on NCI-H460 lung, 32 µM; with CAKI-1 renal, 51.1 µM; in the assay on HL-60(TB) leukemia, more than 100 µM; in the assay with NCI-H23 lung, 40.3 µM; in the assay on SNB-75 CNS, 46.1 µM. Besides, the figures for the TGI in the assay on T-47D breast, in the assay on HOP-92 NSCLC and with NCI-H226 lung were 65.6 µM, 67.6 µM and 40.2 µM, respectively.

Take `CN(C)CCCCNc1ccc(NCCCCN(C)C)c2c1C(=O)c1c(O)ccc(O)c1C2=O`: the GI50 was 1.42 µM with OVCAR-4 ovarian; 1.59 µM with NCI-H460 lung; 8.15 µM in the assay on CAKI-1 renal; 1.73 µM in the assay with HL-60(TB) leukemia; 1.72 µM in the assay on SR leukemia; 1.63 µM with NCI-H23 lung. Further, the GI50 in the assay on SNB-75 CNS is 12.8 µM; in the assay on T-47D breast, 18.5 µM; in the assay with NCI-H226 lung, 14.9 µM. In addition, the TGI in the assay on OVCAR-4 ovarian was 2.76 µM; in the assay on NCI-H460 lung, 2.94 µM; with CAKI-1 renal it was 21.6 µM; in the assay with HL-60(TB) leukemia, 4.12 µM; with SR leukemia, 5.01 µM; in the assay with NCI-H23 lung it was 2.98 µM. Further, the TGI stood at 25.3 µM with SNB-75 CNS, 33.2 µM in the assay on T-47D breast and 28.1 µM with NCI-H226 lung.

Turning to `O=C1c2ccc3c4c(ccc(c24)C(=O)N1CCNCc1ccccc1)C(=O)N(CCNCc1ccccc1)C3=O`, the GI50 was 1.41 µM in the assay on OVCAR-4 ovarian; 1.8 µM in the assay with NCI-H460 lung; 1.88 µM in the assay with CAKI-1 renal; 2.09 µM with HL-60(TB) leukemia; 1.86 µM in the assay with NCI-H23 lung; 3.19 µM in the assay on SNB-75 CNS. For the same compound, the GI50 in the assay on T-47D breast is 1.64 µM; in the assay with HOP-92 NSCLC it was 7.66 µM. Also, the TGI in the assay on OVCAR-4 ovarian was found to be 2.71 µM; in the assay on NCI-H460 lung, 4.26 µM; in the assay on CAKI-1 renal, 4.91 µM; in the assay on HL-60(TB) leukemia it was 4.91 µM; with NCI-H23 lung, 3.89 µM; in the assay on SNB-75 CNS, 43.1 µM. Moreover, the TGI is 3.57 µM in the assay with T-47D breast and 33.2 µM in the assay on HOP-92 NSCLC.
